Several values for one entry are separate records, joined by “and”; a condition that tells them apart may be missing. Identical values can stand only once. One block for each compound: values may come before it.
How the values were obtained:
[1] = target: T1, Insulin-like growth factor 1 receptor (Homo sapiens, UniProt P08069); test: Inhibition of human recombinant IGF-1 receptor expressed in mouse 3T3 cells treated for 15 mins by ELISA analysis; type: cell-based
[2] = AUC (0 to infinity) in CD-1 mouse at 50 mg/kg, po measured after 1 to 24 hrs by HPLC-MS/MS analysis; type: ADME, organism-based; conditions: in vivo, time 1-24 hrs
[3] = Cmax in CD-1 mouse at 50 mg/kg, po measured after 1 to 24 hrs by HPLC-MS/MS analysis; type: ADME, organism-based; conditions: in vivo, time 1-24 hrs
[4] = Oral bioavailability in CD-1 mouse administered at 50 mg/kg measured after 1 to 24 hrs by HPLC-MS/MS analysis; type: ADME, organism-based; conditions: in vivo, time 1-24 hrs
[5] = Plasma concentration in athymic nu/nu CD-1 mouse at 100 mg/kg, po measured at 1 hr by HPLC - UV analysis; type: ADME, organism-based
[6] = Plasma concentration in athymic nu/nu CD-1 mouse at 100 mg/kg, po measured at 8 hrs by HPLC - UV analysis; type: ADME, organism-based
[7] = Plasma concentration in athymic nu/nu CD-1 mouse at 100 mg/kg, po measured at 16 hrs by HPLC - UV analysis; type: ADME, organism-based
[8] = Plasma concentration in athymic nu/nu CD-1 mouse at 100 mg/kg, po measured at 4 hrs by HPLC - UV analysis; type: ADME, organism-based
[9] = target: Cytochrome P450 3A4 (Homo sapiens, UniProt P08684); test: Inhibition of CYP3A4 (unknown origin) using luciferin as substrate in presence of NADPH generating system incubated for 20 mins by luminescent method; type: ADME
[10] = Volume of distribution at steady state in CD-1 mouse at 5 mg/kg, iv measured after 1 to 24 hrs by HPLC-MS/MS analysis; type: ADME, organism-based; conditions: in vivo, time 1-24 hrs, read-out: Vdss
[11] = Clearance in CD-1 mouse at 5 mg/kg, iv measured after 1 to 24 hrs by HPLC-MS/MS analysis; type: ADME, organism-based; conditions: in vivo, time 1-24 hrs
[12] = Elimination half life in CD-1 mouse at 50 mg/kg, po measured after 1 to 24 hrs by HPLC-MS/MS analysis; type: ADME, organism-based; conditions: in vivo, time 1-24 hrs, read-out: beta t1/2 (converted)
[13] = Elimination half life in CD-1 mouse at 5 mg/kg, iv measured after 1 to 24 hrs by HPLC-MS/MS analysis; type: ADME, organism-based; conditions: in vivo, time 1-24 hrs, read-out: beta t1/2 (converted)
[14] = Clearance in Sprague-Dawley rat at 5 mg/kg, iv measured after 1 to 24 hrs by HPLC-MS/MS analysis; type: ADME, organism-based; conditions: in vivo, time 1-24 hrs
[15] = Volume of distribution at steady state in Sprague-Dawley rat at 5 mg/kg, iv measured after 1 to 24 hrs by HPLC-MS/MS analysis; type: ADME, organism-based; conditions: in vivo, time 1-24 hrs, read-out: Vdss
[16] = target: T1, Insulin-like growth factor 1 receptor; test: Inhibition of human recombinant IGF-1 receptor in presence of ATP by ELISA analysis
[17] = Elimination half life in Sprague-Dawley rat at 5 mg/kg, iv measured after 1 to 24 hrs by HPLC-MS/MS analysis; type: ADME, organism-based; conditions: in vivo, time 1-24 hrs, read-out: beta t1/2 (converted)
[18] = Volume of distribution at steady state in CD-1 mouse at 10 mg/kg, iv measured after 1 to 24 hrs by HPLC-MS/MS analysis; type: ADME, organism-based; conditions: in vivo, time 1-24 hrs, read-out: Vdss
[19] = Elimination half life in Sprague-Dawley rat at 20 mg/kg, po measured after 1 to 24 hrs by HPLC-MS/MS analysis; type: ADME, organism-based; conditions: in vivo, time 1-24 hrs, read-out: beta t1/2 (converted)
[20] = Clearance in CD-1 mouse at 10 mg/kg, iv measured after 1 to 24 hrs by HPLC-MS/MS analysis; type: ADME, organism-based; conditions: in vivo, time 1-24 hrs
[21] = Cmax in Sprague-Dawley rat at 20 mg/kg, po measured after 1 to 24 hrs by HPLC-MS/MS analysis; type: ADME, organism-based; conditions: in vivo, time 1-24 hrs
[22] = Oral bioavailability in CD-1 mouse administered at 25 mg/kg measured after 1 to 24 hrs by HPLC-MS/MS analysis; type: ADME, organism-based; conditions: in vivo, time 1-24 hrs
[23] = Cmax in CD-1 mouse at 25 mg/kg, po measured after 1 to 24 hrs by HPLC-MS/MS analysis; type: ADME, organism-based; conditions: in vivo, time 1-24 hrs
[24] = Elimination half life in CD-1 mouse at 25 mg/kg, po measured after 1 to 24 hrs by HPLC-MS/MS analysis; type: ADME, organism-based; conditions: in vivo, time 1-24 hrs, read-out: beta t1/2 (converted)
[25] = Plasma concentration in Sprague-Dawley rat at 20 mg/kg, po measured after 24 hrs by HPLC-MS/MS analysis; type: ADME, organism-based
[26] = Microsomal stability in dog liver microsomes assessed as extraction ratio in presence of NADPH for 0 to 40 mins by LC-MS/MS analysis; type: ADME, Canis lupus familiaris, Microsome; conditions: time 0-40 min, read-out: ERH
[27] = AUC (0 to infinity) in Sprague-Dawley rat at 20 mg/kg, po measured after 1 to 24 hrs by HPLC-MS/MS analysis; type: ADME, organism-based; conditions: in vivo, time 1-24 hrs
[28] = Plasma concentration in CD-1 mouse at 25 mg/kg, po measured after 24 hrs by HPLC-MS/MS analysis; type: ADME, organism-based
[29] = in vitro; conditions: human, liver microsomes
Description: Microsomal stability in human liver microsomes assessed as extraction ratio in presence of NADPH for 0 to 40 mins by LC-MS/MS analysis

[30] = AUC (0 to infinity) in CD-1 mouse at 25 mg/kg, po measured after 1 to 24 hrs by HPLC-MS/MS analysis; type: ADME, organism-based; conditions: in vivo, time 1-24 hrs
[31] = in vitro; conditions: mouse, liver microsomes
Description: Microsomal stability in mouse liver microsomes assessed as extraction ratio in presence of NADPH for 0 to 40 mins by LC-MS/MS analysis

[32] = Elimination half life in CD-1 mouse at 10 mg/kg, iv measured after 1 to 24 hrs by HPLC-MS/MS analysis; type: ADME, organism-based; conditions: in vivo, time 1-24 hrs, read-out: beta t1/2 (converted)
[33] = Oral bioavailability in Sprague-Dawley rat administered at 20 mg/kg measured after 1 to 24 hrs by HPLC-MS/MS analysis; type: ADME, organism-based; conditions: in vivo, time 1-24 hrs
[34] = Microsomal stability in rat liver microsomes assessed as extraction ratio in presence of NADPH for 0 to 40 mins by LC-MS/MS analysis; type: ADME, Microsome; conditions: time 0-40 min, read-out: ERH

T1 sequence (P08069 31-736 limits assumed): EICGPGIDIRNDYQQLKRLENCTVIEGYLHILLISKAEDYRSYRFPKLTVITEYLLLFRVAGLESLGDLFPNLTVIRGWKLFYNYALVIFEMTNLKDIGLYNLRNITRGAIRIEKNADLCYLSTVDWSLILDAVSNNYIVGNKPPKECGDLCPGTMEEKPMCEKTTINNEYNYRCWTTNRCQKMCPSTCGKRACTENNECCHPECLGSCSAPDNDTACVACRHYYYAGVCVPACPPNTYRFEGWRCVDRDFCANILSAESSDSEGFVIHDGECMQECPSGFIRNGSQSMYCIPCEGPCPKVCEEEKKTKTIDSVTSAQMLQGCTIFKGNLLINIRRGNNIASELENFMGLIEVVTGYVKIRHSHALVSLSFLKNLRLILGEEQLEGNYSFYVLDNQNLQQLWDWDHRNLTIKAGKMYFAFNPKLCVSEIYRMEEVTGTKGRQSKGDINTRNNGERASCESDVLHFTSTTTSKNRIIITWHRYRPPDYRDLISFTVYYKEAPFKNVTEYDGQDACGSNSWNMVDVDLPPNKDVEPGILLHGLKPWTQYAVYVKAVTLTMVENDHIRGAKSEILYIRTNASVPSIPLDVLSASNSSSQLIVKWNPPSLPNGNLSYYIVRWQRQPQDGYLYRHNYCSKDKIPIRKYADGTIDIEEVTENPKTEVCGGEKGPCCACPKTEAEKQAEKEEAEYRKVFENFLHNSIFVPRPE
T1 sequence (P08069 741-1367 limits assumed): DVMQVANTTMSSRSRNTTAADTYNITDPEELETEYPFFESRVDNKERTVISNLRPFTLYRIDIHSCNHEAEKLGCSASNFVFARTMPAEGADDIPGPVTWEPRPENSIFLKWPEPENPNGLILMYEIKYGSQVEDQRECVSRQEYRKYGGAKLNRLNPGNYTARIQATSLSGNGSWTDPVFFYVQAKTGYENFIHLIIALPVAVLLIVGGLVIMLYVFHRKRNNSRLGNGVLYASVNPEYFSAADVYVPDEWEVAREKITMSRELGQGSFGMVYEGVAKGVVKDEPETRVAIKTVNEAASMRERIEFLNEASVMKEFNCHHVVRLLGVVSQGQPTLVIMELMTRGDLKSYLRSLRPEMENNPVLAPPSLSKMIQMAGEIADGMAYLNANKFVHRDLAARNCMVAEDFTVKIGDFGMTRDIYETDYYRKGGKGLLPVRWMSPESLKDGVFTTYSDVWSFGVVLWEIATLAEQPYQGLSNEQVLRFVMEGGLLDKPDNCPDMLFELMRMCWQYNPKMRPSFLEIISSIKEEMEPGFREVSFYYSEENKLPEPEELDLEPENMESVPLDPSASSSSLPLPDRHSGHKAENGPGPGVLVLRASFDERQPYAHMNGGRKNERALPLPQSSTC
Cytochrome P450 3A4, sequence (P08684 whole entry): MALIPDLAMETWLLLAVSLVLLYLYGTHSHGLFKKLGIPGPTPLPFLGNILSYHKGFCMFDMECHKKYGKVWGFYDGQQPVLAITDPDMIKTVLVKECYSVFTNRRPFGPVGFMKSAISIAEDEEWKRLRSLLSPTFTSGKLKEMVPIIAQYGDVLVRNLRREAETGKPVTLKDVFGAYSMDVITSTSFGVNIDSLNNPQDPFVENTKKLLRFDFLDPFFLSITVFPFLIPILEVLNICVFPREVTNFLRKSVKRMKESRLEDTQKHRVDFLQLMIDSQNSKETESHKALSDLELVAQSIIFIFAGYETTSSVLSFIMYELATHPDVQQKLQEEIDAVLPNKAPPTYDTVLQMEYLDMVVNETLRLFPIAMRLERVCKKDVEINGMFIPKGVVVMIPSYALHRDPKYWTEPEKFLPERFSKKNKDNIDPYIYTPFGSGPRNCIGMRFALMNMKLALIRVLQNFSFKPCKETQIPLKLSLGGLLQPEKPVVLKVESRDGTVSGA

IC50 [1]: 42 nM | AUC(0-inf) [2]: 52500 ng·h/mL | Cmax [3]: 11400 nM | bioavailability [4]: 77%
Structure (SMILES): Nc1nccn2c1c(-c1ccc3ccc(-c4ccccc4)nc3c1)nc2[C@H]1CC[C@H](C(N)=O)CC1

concentration at 1 h [5]: 4590 ng/mL and 11.3 µM | concentration at 8 h [6]: 4650 ng/mL and 11.4 µM | concentration at 16 h [7]: 2360 ng/mL and 5.8 µM | concentration at 4 h [8]: 3660 ng/mL and 8.99 µM
Structure (SMILES): Nc1nccn2c(C3CC(O)C3)nc(-c3ccc4ccc(-c5ccccc5)nc4c3)c12 (stereo not drawn)

IC50 [9]: 3300 nM | Vd [10]: 6.25 L/kg | concentration at 1 h [5]: 3200 ng/mL and 8.19 µM | AUC(0-inf) [2]: 5170 ng·h/mL | concentration at 8 h [6]: 3110 ng/mL and 7.95 µM | concentration at 16 h [7]: 1030 ng/mL and 2.64 µM | clearance [11]: 90 mL/min/kg | half-life [12]: 0.98 h | Cmax [3]: 2680 nM | half-life [13]: 0.98 h | concentration at 4 h [8]: 1810 ng/mL and 4.62 µM | bioavailability [4]: 56%
Structure (SMILES): Nc1nccn2c(C3CCC3)nc(-c3ccc4ccc(-c5ccccc5)nc4c3)c12

IC50 [9]: 8300 nM | clearance [14]: 16 mL/min/kg | IC50 [1]: 19 nM | Vd [15]: 21 L/kg | IC50 [16]: 24 nM | half-life [17]: 20 h | Vd [18]: 8 L/kg | half-life [19]: 28.7 h | clearance [20]: 19 mL/min/kg | Cmax [21]: 1350 nM | bioavailability [22]: 100% | Cmax [23]: 2200 nM | half-life [24]: 23.6 h | concentration at 24 h [25]: 740 nM | hepatic extraction ratio [26]: 0.5 | AUC(0-inf) [27]: 28700 ng·h/mL | concentration at 24 h [28]: 1040 nM | hepatic extraction ratio [29]: 0.59 | AUC(0-inf) [30]: 34500 ng·h/mL | hepatic extraction ratio [31]: 0.53 | half-life [32]: 5 h | bioavailability [33]: 100% | hepatic extraction ratio [34]: 0.21
Structure (SMILES): CN1CCN([C@H]2C[C@@H](c3nc(-c4ccc5ccc(-c6ccccc6)nc5c4)c4c(N)nccn43)C2)CC1
